Experimental data published in patent US10876115B2, “Method for assaying MicroRNA, cancer therapeutic agent, and medical composition containing same for cancer therapy” (National University Corporation Tokyo Medical and Dental …, priority 2013, dated 2020).

tested on: transcriptional activity of NRF2 (ARE activity); experiment: miRNA library screening using ARE-luciferase reporter system; format: cell-based, human; settings: HeLa cells, 20 nmol/L miRNA, 48 hours after transfection, luciferase activity per living cell
Experimental: The luciferase reporter plasmid was prepared by inserting a human NQO-1 promoter region 5′-[…]-3′ (SEQ ID NO: 19) including an antioxidant response element (ARE) into an Mlu1/Xho1 site in pGL3 vector (Promega). Specifically, a pair of synthetic oligonucleotides complementary with each other shown in Table 2 (upper; SEQ ID NO: 20, lower; SEQ ID NO: 21) were annealed, to thereby form a double-stranded DNA, and a double-stranded DNA having cohesive ends complementary to the Mlu1/Xho1 site was prepared by use of Mlu1 and Xho1. The thus-produced double-stranded DNA fragment was inserted into the Mlu1/Xho1 site, to thereby yield a recombinant pGL3 (reporter plasmid) of interest.
Firstly, the reporter plasmid was transiently transfected into HeLa cells (1×10^7 cells/dish) in a 10 cm dish. 24 hours after transfection, the cells (1×10^4 cells/well) were seeded on a 96-well plate, and the next day, 20 nmol/L of each of the 470 double-stranded RNA fragments, derived from Pre-miRNA precursor library-Human V3 (Ambion) or control miRNA was transfected. After two days, firefly luciferase activity was measured by means of a microplate reader (ARVOmx; Perkinelmer) using Bright-Glo Luciferase Assay System (Promega). At the same time, living cells were detected through CV staining assay. ARE activity was calculated from the luciferase activity per living cell.
For the screening of 470 double-stranded RNAs, HeLa cells were sequentially transfected with each miRNA together with the reporter plasmid, and then the ARE activity in each transfected cell was calculated as the luciferase activity per living cell, as measured by the crystal violet (CV) staining assay. Briefly, the ARE-luciferase reporter plasmid and each miRNA from the library were sequentially transfected into HeLa cells, and after 48 hours, luciferase activity or the number of living cells was measured using the Bright-GIo Luciferase Assay System or crystal violet (CV) staining assay, respectively. The ARE activity for each miRNA-transfected cell was calculated as the luciferase activity per living cell.
The ARE activity relative to that in control-miRNA-transfected cells is indicated on the vertical axis. Eight miRNAs with a relative ratio of 0.5 or less were identified as candidates by this screening system. Also, eight miRNAs with a relative ratio of 1.5 or more were similarly identified as candidates by this screening system.

ARE activity relative to that in control-miRNA-transfected cells (relative ratio), large decrease:
hsa-miR-153: low-value miRNA from Pre-miRNA precursor library; mature sequence UUGCAUAGUCACAAAAGUGAUC, SEQ ID NO: 7 (listed as RNA, chemistry not given here; listed as Homo sapiens)
hsa-miR-337: low-value miRNA from Pre-miRNA precursor library; mature sequence GAACGGCUUCAUACAGGAGUU, SEQ ID NO: 6 (listed as RNA, chemistry not given here; listed as Homo sapiens)
hsa-miR-556: low-value miRNA from Pre-miRNA precursor library; mature sequence GAUGAGCUCAUUGUAAUAUGAG, SEQ ID NO: 8 (listed as RNA, chemistry not given here; listed as Homo sapiens)
hsa-miR-639: low-value miRNA from Pre-miRNA precursor library; mature sequence AUCGCUGCGGUUGCGAGCGCUGU, SEQ ID NO: 5 (listed as RNA, chemistry not given here; listed as Homo sapiens)
